We go through 17 compounds from patent publication US4774345A, “Amine-complexed zinc salts of organic diacids” (Engelhard Corporation, priority 1986, dated 1988).

“Also recorded” adds a separate entry of the source. Read-outs that look alike come from different tables or passages of the source.

Data set [1] can be described thus: Primary skin irritation. The class given is in vivo. The following applies: 0.5 g in Saline Paste.
Data set [2] can be described thus: Electrochemical testing (Tafel Plot), corrosion current, corrosion potential and pH of simulated acid rain saturated with pigment.
Data set [3] can be described thus: Salt spray exposure, Example VI (ASTM B117-73; alkyd and latex primers). The following applies: for Salt spray durability, in words: FIG. 3, alkyd formulation.
The conditions of data set [4]: in vivo; cited from earlier work.
For data set [5] the following is noted: water.
Data set [6] in a line: Salt spray exposure, Example V (alkyd and latex primers).
Data set [7] can be described thus: Draize eye irritation. The format is in vivo. To be noted: 100 mg.
Data set [8] can be described thus: Acute oral toxicity. The format is in vivo.
The mark [9] stands for this setting: Table III, simulated acid rain electrolyte pH about 4.2, saturated with pigment.

Regarding `NCCN.O=C([O-])c1ccccc1C(=O)[O-].[Zn+2]` [Compound 17, Zinc Phthalate Ethylenediamine], the “Skin Irritation, rating in words” value in data set [1] is given as “non-irritating”. For the same compound, in data set [2], the “Corrosion Curr. (Icorr)” value is recorded as 83 microamps.
Consider `CC(N)CN.O=C([O-])CCCCC(=O)[O-].[Zn+2]` [Compound 4, Zinc Adipate Propylenediamine], for which the “Salt spray durability, in words” value in data set [3] was “superior to "Zinc Yellow" (zinc chromate) in salt spray durability”.
Consider `CCNCC.O=C([O-])CCCCCCCCCCC(=O)[O-].[Zn+2]` [Compound 12, Zinc Dodecanedioate Diethylamine], for which the “Corrosion Curr. (Icorr)” value in data set [2] is on record as 197 microamps.
Consider zinc chromate, for which, in data set [4], the TDLo was 12 mg/kg.
Regarding Zinc Dibasate Piperidine [Compound 24], in data set [2], the “Corrosion Curr. (Icorr)” value was 40 microamps and the “Corrosion Pot. (Ecorr)” value was -610 millivolts.
Take “Zinc Dibasate Propylenediamine [Compound 8]”: the “Solubility Description” value in data set [5] is “SS (key: PINS: practically insoluble (<.1 g/100 cc H2 O); SS: slightly soluble (.1 to 1 g/100 cc H2 O); MS: moderately soluble)”.
Compound `NCCN.O=C([O-])CCCCCCCC(=O)[O-].[Zn+2]` [Compound 5, Zinc Azelate Ethylenediamine] returned a pH in data set [2] (Table III) of 6.78. Besides, the “Corrosion Pot. (Ecorr)” value in data set [2] (Table III, against saturated calomel electrode) is given as -667 millivolts. Besides, in data set [2] (setting [9]), the “Corrosion Curr. (Icorr)” value is 82 microamps. Moreover, the “Effect of kaolin on salt spray performance” value in data set [6] (distended on kaolin) is reported as “anomolously reduced the performance”.
For `O=C([O-])CCCCCCCCCCC(=O)[O-].OCCN(CCO)CCO.[Zn+2]` [Compound 10, Zinc Dibasate Triethanolamine], in data set [2], the “Corrosion Curr. (Icorr)” value is 93 microamps, the “Corrosion Pot. (Ecorr)” value is -580 millivolts and the pH is 7.2.
As to “Zinc Sulfonyldiphenolate Ethylenediamine [Compound 15]”, in data set [1], the “Skin Irritation, rating in words” value is on record as “non-irritating”. Also, in data set [2], the “Corrosion Curr. (Icorr)” value is listed as 170 microamps, the “Corrosion Pot. (Ecorr)” value is on record as -592 millivolts and the pH is reported as 7.67. The “Eye Irritation, rating in words” value in data set [7] was “severely irritating”.
For the compound `NCCN.O=C([O-])CCCCC(=O)[O-].[Zn+2]` [Compound 3, Zinc Adipate Ethylenediamine], the “Skin Irritation, rating in words” value in data set [1] is given as “minimally irritating”. The “Corrosion Curr. (Icorr)” value in data set [2] (setting [9]) is recorded as 78 microamps. Further, the “Salt spray durability, in words” value in data set [3] is reported as “superior to "Zinc Yellow" (zinc chromate) in salt spray durability”. In addition, the “Eye Irritation, rating in words” value in data set [7] is recorded as “moderately-irritating”.
As for “Zinc Thiodiphenolate Propylenediamine [Compound 20]”, in data set [2], the “Corrosion Curr. (Icorr)” value is on record as 46 microamps, the “Corrosion Pot. (Ecorr)” value is on record as -560 millivolts and the pH is 8.18.
Take “Zinc Dibasate Dimethylamine [Compound 21]”: in data set [2], the “Corrosion Curr. (Icorr)” value is listed as 82 microamps and the “Corrosion Pot. (Ecorr)” value is -610 millivolts.
Turning to `NCCN.O=C([O-])c1cccc(C(=O)[O-])c1.[Zn+2]` [Compound 18, Zinc Isophthalate Ethylenediamine], the “Salt spray durability, in words” value in data set [3] was “superior to "Zinc Yellow" (zinc chromate) in salt spray durability”.
Consider “Zinc Thiodiphenolate Ethylenediamine [Compound 14]”, for which, in data set [2], the “Corrosion Curr. (Icorr)” value is given as 52.5 microamps, the “Corrosion Pot. (Ecorr)” value is -570 millivolts and the pH is 8.60. In data set [6], the “Effect of kaolin on salt spray performance” value was “kaolin likewise enhanced the performance” and the “Hours to failure in salt spray (performance level)” value is on record as “approximately 780 hours”. Also, the “Paint panel durability in salt spray, in words” value in data set [3] was “slightly less than half the durability achieved by the commercial "Zinc Yellow" (zinc chromate) corrosion-inhibitor formulation; also recorded: performed markedly better than commercially available corrosion inhibitors, such as Nalzin, Halox, Busan, "Moly White" and zinc phosphate”. Moreover, the “Toxicity characteristics (overall statement)” value in data set [8] (acute oral, skin and eye tests of Table VIII) is “unacceptable toxicity characteristics”. Also, the “Eye Irritation, rating in words” value in data set [7] is on record as “extremely irritating”.
`NCCN.O=C([O-])CCCCCCCCCCC(=O)[O-].[Zn+2]` [Compound 11, Zinc Dodecanedioate Ethylenediamine]: the “Corrosion Curr. (Icorr)” value in data set [2] (setting [9]) is 130 microamps. For the same compound, the “Salt spray durability, in words” value in data set [3] is on record as “superior to "Zinc Yellow" (zinc chromate) in salt spray durability”.
As for `NCCN.O=C([O-])CCCCCCCCC(=O)[O-].[Zn+2]` [Compound 6, Zinc Sebacate Ethylenediamine], the “Skin Irritation, rating in words” value in data set [1] was “minimally irritating”. For the same compound, in data set [2], the “Corrosion Curr. (Icorr)” value was 170 microamps, the “Corrosion Pot. (Ecorr)” value is given as -462 millivolts and the pH is 6.8. For the same compound, the “Eye Irritation, rating in words” value in data set [7] is “severely irritating”.
Consider Zinc Dibasate Diethylamine [Compound 9], for which, in data set [2], the “Corrosion Pot. (Ecorr)” value is listed as -570 millivolts and the pH is given as 7.0. For the same compound, in data set [8] (Oral (5 g/kg in Corn Oil)), the “Acute oral toxicity, mortality” value was found to be 0%. Further, in data set [7], the “Eye Irritation, rating in words” value is given as “mildly irritating”.
